Here are results for four molecules from paper PMC11073428, “The activity of pyrazolo[4,3-e][1,2,4]triazine and pyrazolo[4,3-e]tetrazolo[1,5-b][1,2,4]triazine sulphonamide derivatives in monolayer and spheroid breast cancer cell cultures” (Journal of Enzyme Inhibition and Medicinal Chemistry, 2024).

Read-outs that look alike come from different tables or passages of the source.

Series [1] concerns MDA-MB-231 breast cancer cells. Description: MTT viability assay, MDA-MB-231. The settings on record: for IC50: Homo sapiens, MDA-MB-231, 24 h, read-out: Cytotoxicity IC50 MDA-MB-231.
Description: (§7) Following 24-h incubation with tested compounds, the medium was discarded from the cell cultures. Then, into each well with cells was added 1 mL of PBS and 50 µL of MTT solution (5 mg per mL). Cells were incubated at 37 °C and 5% CO2 in humidified atmosphere for a defined time appropriate for each cell line. After incubation, the solution above the cells was removed and obtained purple formazan crystals were dissolved in 1 mL DMSO. The absorbance was read at OD = 570 nm on Evolution 201 Spectrophotometer (Thermo Scientific, Waltham, MA).
The next series in a line: in vitro. The settings on record: human.
For series [2], the system named is MCF-7 breast cancer cells. As to the kind of experiment: MTT viability assay, MCF-7. The following applies: for IC50: Homo sapiens, MCF7, 24 h, read-out: Cytotoxicity IC50 MCF-7.
Description: as §7
Series [3] relates to MDA-MB-231 breast cancer cells. As to the kind of experiment: Apoptosis, annexin V-FITC/PI flow cytometry, MDA-MB-231. The class given is cell-based, human. The settings on record: 24 h; for early and late apoptotic cells: MDA-MB-231, 0.5 µM. How it is done: (§1) The analysis was performed using flow cytometry Apoptosis Detection Kit II (BD Biosciences, San Diego, CA) as described previously.

Series [4] has as its system MCF-7 breast cancer cells. As to the kind of experiment: Apoptosis, annexin V-FITC/PI flow cytometry, MCF-7. The class given is cell-based, human. The following applies: 24 h; for early and late apoptotic cells: MCF-7, 0.5 µM. How it is done: as §1
In another series the test system is MCF-7 spheroids. As to the kind of experiment: 3D spheroid culture, MCF-7. The series is classed as cell-based, human. The following applies: 0.25 µM and 0.5 µM. How it is done:
(§2) The 3D cell culture was carried out with 6-Well Bio-Assembler Kit in accordance with the manufacturer’s instructions (Greiner Bio-One GmbH, Frickenhausen, Germany). First, MCF-7 and MDA-MB-231 were cultured in 2D using procedure and supplied to 80% confluency and treated with nanoshuttle at concentration of 1 µL/10 000 cell and incubated overnight. Following incubation, the medium was removed, and the cells were detached by trypsin–EDTA solution and resuspended in DMEM. The cells were counted using Scepter 2.0 Handheld Automated Cell Counter (Merck, Darmstadt, Germany) and plated at the concentration 1 × 10^6 cells per well in six-well plate. Then, cells were gently tilted in the flask to evenly distribute the nanoparticle and incubated (37 °C, 5% CO2, 95–98% humidity) for 1 h with magnet on the top of the plate. The cells self-assemble to spheroids. The obtained 3D cell culture was incubated until analysis.
(§3) The visualisation of the morphological changes in 3D cell culture of MCF-7 and MDA-MB-231 was evaluated using microscope (Nikon Eclipse Ti, Tokyo, Japan).
(§4) The mean ± standard deviation (SD) for all data is presented. One-way and two-way analysis of variance (ANOVA) was conducted followed by Dunnett’s test. GraphPad 8.0.1 Prism software (GraphPad Software, San Diego, CA) was used for calculation. The analysis of spheroids area was carried out using ImageJ software from the NIH (Bethesda, MD).

A further series concerns MDA-MB-231 spheroids. Description: 3D spheroid culture, MDA-MB-231. The class given is cell-based, human. The following applies: 0.25 µM and 0.5 µM. How it is done: as §2, §3, §4
Series [5] concerns MCF-7 breast cancer cells. Details: method as in PMID 27488500. The following applies: 24 h incubation; read-out: IC50 in MCF-7 (previous studies); cited from earlier work.
The test system of another series is Bax in MCF-7 cells. Description: Anti-Bax antibody flow cytometry, MCF-7. The series is classed as cell-based, human. The following applies: MCF-7, 24 h. How it is done:
(§5) To evaluate the molecular mechanism of induction of apoptosis of tested compounds, the level of p53, NF-κB, mTOR, Bax, and beclin-1 was measured using appropriate antibody according to the manufacturer’s instruction. In brief, tryspinised cells were centrifuged, then supernatant was discarded, and cells were suspended in 4% FA (formaldehyde). Prepared samples were incubated 15 min at RT. Following incubation, the 2.5 mL PBS was added to each sample and centrifuged. Then, supernatant was discarded, and cells were resuspended in 90% ice-cold methanol to perform permeabilisation and left for 1 h in ice. To remove methanol, cells were rinsed with excess PBS by centrifugation. Following centrifugation, the supernatant was discarded. Then, cells were resuspended in 100 µL of appropriate diluted (1:100 in PBS) antibody conjugate (p53 (7F5) Rabbit mAb – Alexa Fluor 488 Conjugate #5429 Cell Signalling Technology, Danvers, MA; NF-κB p65 (D14E12) XP Rabbit mAb – Alexa Fluor 647 Conjugate #8801 Cell Signalling Technology, Danvers, MA; mTOR (7C10) Rabbit mAB – Alexa Fluor 647 #5048 Cell Signalling Technology, Danvers, MA; FITC Anti-Bax antibody (T22-A) #ab139543, Abcam, Cambridge, UK) and incubated 1 h in the dark at RT. Afterwards, cells were washed by centrifugation in 2 mL of incubation buffer. Finally, supernatant was removed and 300 µL PBS was added to each sample and pipetted. The analysis was performed by flow cytometry (BD FACSCanto II, Becton Dickinson Biosciences Systems, San Jose, CA) using FACSDiva software ver. 6.1.3.

Series [6] deals with MDA-MB-231 breast cancer cells. Details: method as in PMID 27488500. The settings on record: 24 h incubation; read-out: IC50 in MDA-MB-231 (previous studies); cited from earlier work.
The next series deals with beclin-1 in MCF-7 cells. As to the kind of experiment: Anti-beclin-1 antibody flow cytometry, MCF-7. The settings on record: MCF-7, 0.5 µM, 24 h. The class given is cell-based, human. How it is done: (§6) The fixation and permeabilisation were performed as described above. Cells were resuspended in 100 µL of diluted primary antibody (1:100 in PBS, anti-beclin 1 antibody (2A4) #ab114071, Abcam, Cambridge, UK) and incubated 30 min in the dark at RT. The cells were washed three times by centrifugation in PBS. Then to each probe, 100 µL of diluted fluorochrome-labelled secondary antibody (1:100 in PBS; goat anti-mouse IgG H&L – Alexa Fluor 488 #ab150113, Abcam, Cambridge, UK) was added and incubated 30 min in dark at RT. Then, cells were rinsed with 2.5 mL PBS. In the last step, supernatant was discarded and cells were resuspended in 300 µL PBS and pipetted. The analysis was carried out by flow cytometry.

The test system of series [7] is MCF-10A normal breast cells. Details: method as in PMID 32575817. The following applies: 24 h incubation; read-out: IC50 in MCF-10A (previous studies); cited from earlier work.
Series [8] deals with beclin-1 in MDA-MB-231 cells. As to the kind of experiment: Anti-beclin-1 antibody flow cytometry, MDA-MB-231. The series is classed as cell-based, human. The settings on record: MDA-MB-231, 0.5 µM, 24 h. How it is done:
as §6

A further series concerns Bax in MDA-MB-231 cells. Description: Anti-Bax antibody flow cytometry, MDA-MB-231. The settings on record: MDA-MB-231, 24 h. The series is classed as cell-based, human. How it is done:
as §5

Where [9] appears, read: ratio of cytotoxicity, 3a vs 2a, 3b vs 2b.

In turn, `Cc1nn(-c2ccc(S(=O)(=O)N[C@H](CO)Cc3ccccc3)cc2)c2nn3nnnc3nc12` [Compound 3a, (S)-N-(1-Hydroxy-3-phenylpropan-2-yl)-4-(7-methyl-5H-pyrazolo[4,3-e]tetrazolo[1,5-b][1,2,4]triazin-6-yl)benzenesulfonamide] showed a melting point of 172 to 176 °C. Also, the IC50 in series [1] is 0.71 ± 0.14 µM. Also, the “times stronger than the corresponding sulphonyl derivative (2a or 2b), MDA-MB-231” value in series [1] (setting [9]) is ~13 times. Moreover, in the series “in vitro”, 3.5 ± 0.18 µM corresponded to half-maximal inhibition (IC50 at 24 h). Moreover, the IC50 in series [2] came out at 0.35 ± 0.08 µM. Further, in series [2] (setting [9]), the “times stronger than the corresponding sulphonyl derivative (2a or 2b), MCF-7” value was found to be 17 times.

On to `Cc1nn(-c2ccc(S(=O)(=O)N[C@@H](CO)Cc3ccccc3)cc2)c2nnc(S(C)(=O)=O)nc12` [Compound 2b, (R)-N-(1-Hydroxy-3-phenylpropan-2-yl)-4-(3-methyl-5-(methylsulfonyl)-1H-pyrazolo[4,3-e][1,2,4]triazin-1-yl)benzenesulfonamide], for which the melting point was in the range of 124 to 128 °C. For the same molecule, in [3] (MDA-MB-231, 0.25 µM), the apoptotic cells is 5.7 ± 0.6%. The “early and late apoptotic cells” value in series [3] worked out at 5.8 ± 1.8%. In addition, in series [4] (MCF-7, 0.25 µM), the apoptotic cells was 9.8 ± 1.2%. In addition, the “early and late apoptotic cells” value in [4] came out at 14.6 ± 1.7%. In addition, the IC50 in [1] was determined as 7.8 ± 0.53 µM. In addition, the “effect on spheroid formation (in words)” value with MCF-7 spheroids is “slower formation of spheroids compared to untreated cells”. The “effect on spheroid formation (in words)” value with MDA-MB-231 spheroids is given as “slower formation of spheroids compared to untreated cells”. The IC50 at 24 h in the series “in vitro” is > 10 µM. Also, the IC50 in series [2] was 5.5 ± 0.39 µM.

For `N.N.[Cl][Pt][Cl]` [Cisplatin, cisplatin, reference compound], the “early and late apoptotic cells” value in series [3] amounted to 7.6 ± 0.6%; in series [4], 7.1 ± 0.9%. Besides, the IC50 in series [5] was 93 µM; in series [6] it was 82 µM; in series [7], > 100 µM. Also, the “number of cells with active Bax (in words)” value in the series on Bax in MCF-7 cells and with Bax in MDA-MB-231 cells was “at the control level” each time. The “cells with active beclin-1” value was determined as 4.1 ± 0.5% with beclin-1 in MCF-7 cells and 3.6 ± 0.7% in series [8]. Besides, the “effect on spheroid formation (in words)” value in the series on MCF-7 spheroids and in the series on MDA-MB-231 spheroids was “slightly affected growth of spheroids” throughout.

Turning to `Cc1nn(-c2ccc(S(=O)(=O)N[C@H](CO)Cc3ccccc3)cc2)c2nnc(S(C)(=O)=O)nc12` [Compound 2a, (S)-N-(1-Hydroxy-3-phenylpropan-2-yl)-4-(3-methyl-5-(methylsulfonyl)-1H-pyrazolo[4,3-e][1,2,4]triazin-1-yl)benzenesulfonamide], the melting point was 130 to 134 °C. The IC50 in [1] is 9.2 ± 0.78 µM. In “in vitro”, the IC50 at 24 h was > 10 µM. Also, the IC50 in series [2] is 6 ± 0.38 µM.
